Laboratory results from patent US9149468B2, “Multicomponent crystals made ([2-amino-6-(4-fluoro-benzylamino)-pyridin-3-yl]-carbamic acid ethyl ester and 2-[2-[(2,6-dichlorphenyl)-amino]-phenyl]-acetic acid” (TEVA GmbH, priority 2010, dated 2015).
Counter-ions that a name gives are not always drawn. Like-named read-outs stand apart in the source and are kept apart here.

Tests used:
[1] = rat, 35 mg per kg flupirtine maleate combined with various dosages of NSAIDS; cited from earlier work
[2] = mice, 15 mg per kg flupirtine maleate combined with various dosages of NSAIDS; cited from earlier work
[3] = pain and inflammation model (methods of DE 36 65 538); type: in vivo; settings: animal model
From the text: The methods disclosed therein are herewith incorporated as a reference, […]

Structure (SMILES)	effect on antinociceptive activity of paracetamol, acetyl salicylic acid, and diclofenac [1]	effect on antinociceptive activity of paracetamol, acetyl salicylic acid, and diclofenac [2]	effects in pain and inflammation model compared with the test results of DE 36 65 538 [3]
CCOC(=O)Nc1ccc(NCc2ccc(F)cc2)nc1N [flupirtine maleate]	enhances	enhances	
CCOC(=O)Nc1ccc(NCc2ccc(F)cc2)nc1N.O=C(O)Cc1ccccc1Nc1c(Cl)cccc1Cl [multicomponent crystal according to the invention of ([2-amino-6-(4-fluoro-benzylamino)-pyridin-3-yl]carbamic acid ethyl ester and 2-[2-[(2,6-dichlorophenyl)-amino]-phenyl]acetic acid]			qualitatively comparable
